# Measurements as given in publication PMC5640650, “NatD promotes lung cancer progression by preventing histone H4 serine phosphorylation to activate Slug expression” (Nature Communications, 2017).
# How the values were obtained:
# [1] = tested on: H1299 cells; experiment: Apoptosis and cell cycle by flow cytometry, H1299 cells; assay type: cell-based, human; settings: vs Scr
# Experimental: The in vitro viability of H1299 cells was assessed using the Cell Counting Kit-8 (CCK-8, Dojindo, Japan) according to the manufacturer’s protocol. Flow cytometric analysis of apoptosis was assessed by Annexin V and PI staining using the Annexin V-APC Apoptosis Detection Kit (KeyGEN BioTECH, China) according to the manufacturer’s guide. For cell cycle analysis, cells were harvested and fixed at 4 °C overnight with 70% ethanol. Cells were washed twice with PBS, and their DNA was stained using a Cell Cycle Detection Kit (KeyGEN BioTECH, China). The samples were analyzed by flow cytometry (Becton Dickinson, NJ, USA), and results were analyzed with FlowJo software according to the manufacturer’s instructions. For the wound healing assay, cells were plated to confluence in a 6-well plate, and the cell monolayer was scratched using a pipette tip. Representative photos were taken using a digital camera mounted on an inverted microscope (Olympus) at indicated times. Live cell imaging was performed using the HoloMonitor M4 time-lapse cytometer (Phase Holographic Imaging, Sweden). […]
# Supplementary Figure 1. […] (b and c) Representative images from three independent experiments of apoptosis (b) and cell cycle analysis (c) of Scr and NatD-KD H1299 cells analyzed by flow cytometry. […]
# [2] = tested on: Slug promoter; experiment: Slug promoter luciferase reporter assay, H1299 cells; assay type: cell-based, human; settings: 1155-bp Slug promoter in pGL3-basic, beta-galactosidase normalized
# Experimental: Response to the reviewers' comments:
# Q1. In relation to Query 11 where Slug promoter analyses were requested to functionally test the consequences of epigenetic changes, the authors argue “it is less […]
# promoter activity in cytoplasm where functional nucleosomes (composed of histone and DNA) are not formed”. I disagree with the authors’ response since it would invalidate all promoter assays performed in many different situations in which the action of “nuclear” transcription factors is analyzed with exogenous promoters that need to be translocated to the nucleus for functional activity. Thus, although I agree that the epigenetic changes might not be easily reproduced in the exogenous promoters, the authors should made the effort to perform this requested experimental […]
# We agree with the reviewer that the experiment should be performed. Therefore, we cloned a 1155-bp Slug promoter fragment [Ref: Morita T et al., J Cell Biol. 2007, 179(5): 1027-1042] into the pGL3-basic luciferase vector (sequence confirmed by DNA sequencing). The activity of Slug promoter in the different situations (control […]
# NatD) were analyzed; pSV-beta-Gal plasmid expressing beta-galactosidase was used as the normalization control according to Cold Spring Harbor Protocol [Smale ST.
# Beta-galactosidase assay. Cold Spring Harb Protoc 2010: pdb prot5423]. As the […]
# [3] = tested on: A549 cells; experiment: Tail vein xenograft in SCID mice, A549 cells; assay type: in vivo, human
# Source text: Fig. 3 NatD promotes lung cancer cell invasion in a xenograft mouse model. a (left) Representative bioluminescent (BLI) images acquired at the indicated time points after intravenous injection of SCID mice with Scr or NatD-KD A549 cells. NatD-KD2 cells were used because the KD2 shRNA produced a better knockdown effect. Pseudocolor heat-maps indicate intensity of bioluminescence from low (blue) to high (red) (D, day). (right) Normalized BLI signals of lung tumors of corresponding mice (n = 5 for each group) recorded at the indicated time points. Results are shown as mean ± s.d. from five mice. […] (right) Quantification of total lung bioluminescence from SCID mice as in (b) (n = 5 for each group). […]
# All animal care and handling procedures were performed in accordance with the National Institutes of Health Guide for the Care and Use of Laboratory Animals, and were approved by the Institutional Review Board of Nanjing University (Nanjing, China). […] Lung nodules and progression were monitored and quantified using the bioluminescence system (Caliper IVIS Lumina XR) or by counting under a dissecting microscope. […] Mice were killed at day 28 or day 30 to collect lungs, and lung nodules in serial sections were quantified microscopically. […] Lung nodules and progression were monitored and quantified using the bioluminescence system (Caliper IVIS Lumina XR). […]
substance,measurement,setting,value
"NatD-KD2: Human NatD shRNA KD2: 5′-GGTTGAATGTCTCCATTGA-3′, lentiviral (shRNA lentiviral)",numbers of apoptotic cells or cell cycle,[1],no difference
same,Slug promoter luciferase activity,[2],no significant changes in luciferase activity
same,lung cancer growth signals (photon radiance),"[3]; BLI days 1-28, n = 5, vs Scr",significantly reduced
same,number of tumor nodules,"[3]; day 28, n = 5, relative to Scr",decreased threefold
